# From PMC11372264, “^61Cu-PSMA–Targeted PET for Prostate Cancer: From Radiotracer Development to First-in-Human Imaging” (Journal of Nuclear Medicine, 2024)
# Legend:
# [1] = test system: LNCaP xenografts; experiment: Biodistribution in LNCaP xenografts; type: in vivo, mice
# Procedure: All animal experiments were conducted in accordance with Swiss animal welfare laws and regulations under license number 30515 granted by the Veterinary Office, Department of Health, Canton Basel-Stadt, Switzerland. Male athymic nude-Foxn1^nu/Foxn1^+ mice (Envigo), 4–6 wk old, were inoculated subcutaneously on the shoulder with 10^7 LNCaP cells, freshly suspended in a 1:1 ratio of sterile minimum essential medium with basal medium Eagle and Matrigel. The tumors were allowed to grow to a volume of approximately 200 mm^3.
# The biodistribution of [^61Cu]Cu-DOTAGA-PSMA-I&T and [^61Cu]Cu-NODAGA-PSMA-I&T (100 µL/200 pmol/2–3 MBq) was compared with that of [^68Ga]Ga-DOTAGA-PSMA-I&T, [^68Ga]Ga-NODAGA-PSMA-I&T, and [^68Ga]Ga-PSMA-11 (100 µL/200 pmol/3–5 MBq), as well as [^18F]PSMA-1007 (100 µL/70 pmol/15 MBq). This comparison was conducted at 1 h after injection for all radiotracers and at 4 h after injection for the ^61Cu-labeled tracers and [^18F]PSMA-1007. The specificity of the ^61Cu-labeled tracers was assessed at 1 h after injection by blocking studies with 2-(phosphonomethyl)pentanedioic acid (100 µL/1.3 µmol) being injected 3–5 min before the injection of the radiotracer.
# [2] = Stability of radiotracer at room temperature (radiochemical purity over time); type: physicochemical; settings: good manufacturing practice grade for human use, 20 MBq/nmol
# Procedure: [^61Cu]Cu-DOTAGA-PSMA-I&T and [^61Cu]Cu-NODAGA-PSMA-I&T were synthesized with radiolabeling yield of more than 98% and radiochemical purity of more than 97% (radio–high-performance liquid chromatography analysis) at an apparent molar activity of 24 MBq/nmol. Thus, no purification was required after labeling. Although [^61Cu]Cu-DOTAGA-PSMA-I&T needed elevated temperature (95°C) and 15 min of reaction time, [^61Cu]Cu-NODAGA-PSMA-I&T was synthesized at room temperature within 5 min. After 4 h at room temperature, the radiochemical purity of [^61Cu]Cu-DOTAGA-PSMA-I&T dropped to approximately 90%, whereas it remained stable (∼97%) for [^61Cu]Cu-NODAGA-PSMA-I&T. All analytic data and quality control results are provided in Supplemental Figures 1 and 2 and in Supplemental Tables 1 and 2.
# With inexpensive ^natNi as the starting material, highly pure ^61Cu could be produced with radionuclidic purity exceeding 99.99% at 12 h after synthesis (details on the production will be published elsewhere). The preparation of [^61Cu]Cu-NODAGA-PSMA-I&T was performed in widely used buffers at room temperature within 5 min. […] High labeling yields and suitable molar activities for clinical use eliminate the need for any purification step after labeling. […]
# [3] = 1 h after injection, blocking with 2-(phosphonomethyl)pentanedioic acid 1.3 µmol
smiles,measurement,setting,value
"O=C([O-])CN1CCN(CC(=O)[O-])CCN(C(CCC(=O)N[C@H](Cc2ccc(O)c(I)c2)C(=O)N[C@H](Cc2ccccc2)C(=O)N[C@H](CCCCNC(=O)CCCCCCC(=O)NCCCC[C@H](NC(=O)N[C@@H](CCC(=O)O)C(=O)O)C(=O)O)C(=O)O)C(=O)O)CC1.[61Cu+2] (stereo partly drawn) [[^61Cu]Cu-NODAGA-PSMA-I&T, NODAGA-(l-y)fk(sub-KuE)]","Biodistribution, Adrenals",[1]; 1 h after injection,17.3 ± 3.26 %IA/g
same,"Biodistribution, Blood",[1]; 1 h after injection,0.28 ± 0.06 %IA/g
same,"Biodistribution, Femur",[1]; 1 h after injection,2.73 ± 0.91 %IA/g
same,"Biodistribution, Heart",[1]; 1 h after injection,0.45 ± 0.15 %IA/g
same,"Biodistribution, Intestine",[1]; 1 h after injection,2.11 ± 0.78 %IA/g
same,"Biodistribution, Kidneys",[1]; 1 h after injection,118 ± 13 %IA/g
same,"Biodistribution, Liver",[1]; 1 h after injection,1.02 ± 0.28 %IA/g
same,"Biodistribution, Lung",[1]; 1 h after injection,1.69 ± 0.45 %IA/g
same,"Biodistribution, Muscles",[1]; 1 h after injection,1.12 ± 0.32 %IA/g
same,"Biodistribution, Pancreas",[1]; 1 h after injection,0.97 ± 0.36 %IA/g
same,"Biodistribution, Salivary glands",[1]; 1 h after injection,2.01 ± 0.33 %IA/g
same,"Biodistribution, Spleen",[1]; 1 h after injection,6.04 ± 1.87 %IA/g
same,"Biodistribution, Stomach",[1]; 1 h after injection,1.13 ± 0.20 %IA/g
same,"Biodistribution, Tumor (tumor uptake)",[1]; 1 h after injection,14.0 ± 5.0 %IA/g
same,Tumor-to-Adrenals ratio,[1]; 1 h after injection,0.92 ± 0.20
same,Tumor-to-Blood ratio,[1]; 1 h after injection,55.8 ± 20.0
same,Tumor-to-Intestine ratio,[1]; 1 h after injection,7.87 ± 2.93
same,Tumor-to-Kidneys ratio,[1]; 1 h after injection,0.13 ± 0.03
same,Tumor-to-Liver ratio,[1]; 1 h after injection,14.9 ± 4.9
same,Tumor-to-Muscles ratio,[1]; 1 h after injection,13.6 ± 3.75
same,Tumor-to-Salivary glands ratio,[1]; 1 h after injection,7.83 ± 3.16
same,Tumor-to-Spleen ratio,[1]; 1 h after injection,2.86 ± 1.37
same,"Biodistribution, Adrenals",[1]; [3],0.95 ± 0.16 %IA/g
same,"Biodistribution, Blood",[1]; [3],0.19 ± 0.01 %IA/g
same,"Biodistribution, Femur",[1]; [3],0.39 ± 0.24 %IA/g
same,"Biodistribution, Heart",[1]; [3],0.33 ± 0.03 %IA/g
same,"Biodistribution, Intestine",[1]; [3],0.87 ± 0.10 %IA/g
same,"Biodistribution, Kidneys",[1]; [3],4.59 ± 0.35 %IA/g
same,"Biodistribution, Liver",[1]; [3],1.29 ± 0.21 %IA/g
same,"Biodistribution, Lung",[1]; [3],0.67 ± 0.06 %IA/g
same,"Biodistribution, Muscles",[1]; [3],0.32 ± 0.06 %IA/g
same,"Biodistribution, Pancreas",[1]; [3],0.28 ± 0.17 %IA/g
same,"Biodistribution, Salivary glands",[1]; [3],0.51 ± 0.20 %IA/g
same,"Biodistribution, Spleen",[1]; [3],0.33 ± 0.08 %IA/g
same,"Biodistribution, Stomach",[1]; [3],0.62 ± 0.04 %IA/g
same,"Biodistribution, Tumor",[1]; [3],0.68 ± 0.55 %IA/g
same,"Biodistribution, Adrenals",[1]; 4 h after injection,8.32 ± 2.87 %IA/g
same,"Biodistribution, Blood",[1]; 4 h after injection,0.10 ± 0.03 %IA/g
same,"Biodistribution, Femur",[1]; 4 h after injection,1.34 ± 0.48 %IA/g
same,"Biodistribution, Heart",[1]; 4 h after injection,0.22 ± 0.05 %IA/g
same,"Biodistribution, Intestine",[1]; 4 h after injection,1.06 ± 0.50 %IA/g
same,"Biodistribution, Kidneys",[1]; 4 h after injection,90.9 ± 10.1 %IA/g
same,"Biodistribution, Liver",[1]; 4 h after injection,0.72 ± 0.11 %IA/g
same,"Biodistribution, Lung",[1]; 4 h after injection,0.74 ± 0.19 %IA/g
same,"Biodistribution, Muscles",[1]; 4 h after injection,0.50 ± 0.22 %IA/g
same,"Biodistribution, Pancreas",[1]; 4 h after injection,0.45 ± 0.09 %IA/g
same,"Biodistribution, Salivary glands",[1]; 4 h after injection,0.52 ± 0.06 %IA/g
same,"Biodistribution, Spleen",[1]; 4 h after injection,1.28 ± 0.39 %IA/g
same,"Biodistribution, Stomach",[1]; 4 h after injection,0.66 ± 0.15 %IA/g
same,"Biodistribution, Tumor (tumor uptake)",[1]; 4 h after injection,10.7 ± 3.3 %IA/g
same,Tumor-to-Adrenals ratio,[1]; 4 h after injection,1.44 ± 0.65
same,Tumor-to-Blood ratio,[1]; 4 h after injection,109 ± 43
same,Tumor-to-Intestine ratio,[1]; 4 h after injection,12.5 ± 6.7
same,Tumor-to-Kidneys ratio,[1]; 4 h after injection,0.12 ± 0.03
same,Tumor-to-Liver ratio,[1]; 4 h after injection,15.4 ± 5.7
same,Tumor-to-Muscles ratio,[1]; 4 h after injection,25.4 ± 12.0
same,Tumor-to-Salivary glands ratio,[1]; 4 h after injection,19.5 ± 7.1
same,Tumor-to-Spleen ratio,[1]; 4 h after injection,9.16 ± 3.84
same,Time stable at room temperature,[2],up to 9 h
